{"source": "patent US7365099B2", "about": "“Animal body fat control” (Wisconsin Alumni Research Foundation, priority 2001, dated 2008)", "key": {"[1]": {"experiment": "Body weights of mice on aspirin/CLA diets (Experiment 1, FIG. 1)", "type": "in vivo", "settings": "female ICR mice, 0.5% CLA and/or 0.03% aspirin", "description": "After a 5 day adaptation period, four-week-old weanling female ICR mice (Harlan Sprague-Dawley) were randomly separated into groups that were fed one of the treatment diets for 4 weeks. Mice were fed either a control diet, or a diet supplemented with aspirin alone (0.03%), 0.5% CLA alone, or CLA with additional aspirin (0.006% [“Asp1”] or 0.03% [“Asp2”]). The control diet was semi-purified TD94060 diet, 99% basal mix from Harlan Teklad, Madison, Wis. that contained (ingredient, g/kg): sucrose, 476; casein, “vitamin-free” test, 210; corn starch, 150; DL-methionine, 3; corn oil 55; cellulose, 50; mineral mix, AIN-76, 35; vitamin mix, AIV-76A, 10; calcium carbonate, 4; choline bitartrate, 2; and ethoxyquin, 0.1. The aspirin doses reflect an average human dose (0.03%) or a recommended dose for preventing cardiovascular disease (0.006%). Supplemental CLA was added to diets at the expense of corn oil. Diet was stored at −20° C. until use. Mice were housed individually in a windowless room with a 12-h light-dark cycle in strict accordance to guidelines established by the Research Animal Resources Center of University of Wisconsin-Madison. Diet and water, available ad libitum, were freshly provided three times per week."}, "ICR mice": {"test_system": "ICR mice", "experiment": "Body composition analysis of mice on NDGA/CLA diets (Experiment 2)", "type": "in vivo", "settings": "male ICR mice", "experimental": "For body composition analyses, animals were sacrificed, gut contents were removed (to obtain empty carcass weight, “ECW”), and the carcasses frozen at −20° C. Frozen carcasses were chopped, and freeze dried to determine water content. Each dried carcass was ground to give a homogeneous sample before further analysis. Total nitrogen was analyzed by the Kjeldahl method. Helrich, K., Official Methods of Analysis, 15th ed.: 935–937(1990). Carcass fat content was measured by extraction with diethyl ether overnight using a Soxhlet apparatus. Total ash content was determined by incineration (500–600° C., overnight).\n(§1) After a 5 day adaptation period, four-week-old weanling male ICR mice (Harlan Sprague-Dawley) were randomly separated into groups that were fed one of the treatment diets for 4 weeks. Mice were fed either a control diet (as in Experiment 1), or a diet supplemented with CLA (0.1%), NDGA (0.1% or 0.005%), or CLA (0.1%) with NDGA (0.1% or 0.005%). The lower level of NDGA was chosen based on the level used as an antioxidant in the food industry. Supplemental NDGA was added to diets at the expense of sugar. Diet was stored at −20° C. until use. Mice were housed individually in a windowless room with a 12-h light-dark cycle in strict accordance to guidelines established by the Research Animal Resources Center of University of Wisconsin-Madison. Diet and water, available ad libitum, were freshly provided three times per week."}, "3T3-L1 adipocytes": {"test_system": "3T3-L1 adipocytes", "experiment": "Glycerol released from 3T3-L1 adipocytes", "type": "cell-based", "settings": "treated 20–24 hours", "experimental": "Fat reduction by CLA is partly due to inhibition of lipoprotein lipase (LPL) in adipocytes, as has been previously shown using a 3T3-L1 adipocyte cell culture model. Using the same model, the effects on LPL of aspirin and NDGA, as compared to CLA, were tested. 3T3-L1 preadipocytes were cultured as described. Frost, S. C. and M. D. Lane, J. Biol. Chem. 260: 2646–2652(1985). Briefly, 3T3-L1 preadipocytes were grown to confluence at 37° C. in Dulbecco's Modified Eagle's Medium (DMEM) with 10% fetal bovine serum (FBS). At two days post-confluence (designated “day 0”) cell differentiation was induced with a mixture of methylisobutylxanthine (0.5 mM), dexamethasone (0.25 μM), and insulin (1 μg/ml) in DMEM containing 10% FBS. On “day 2” this medium was replaced with DMEM medium containing 10% FBS and insulin only. On “day 4” and thereafter the medium was DMEM plus 10% FBS only; this medium was subsequently replaced with fresh medium at 2 day intervals.\nCells were treated with other known lipoxygenase inhibitors. Cells were treated with testing compounds for 20–24 hours at day 6 or 7 post differentiation. Based on the ED50 of these inhibitors, various doses were first tested. In FIG. 5A, the concentration of SHA, CLA, ETYA, indomethacin, NDGA and AA861 were 1×10^−3 M, 1×10^−4 M, 1×10^−4 M, 1×10^−4 M, 1×10^−5 M and 1×10^−6 M, respectively. In FIG. 5B, the cells were treated with the test compounds at 1×10^−4 M. CLA was complexed with albumin and others were dissolved in ethanol. All dishes including control contained the same concentration of albumin (1×10^−4 M) and ethanol (final concentration of 0.1%). Numbers are mean±S.E. (in FIG. 5A, n=7–8, collected from 2 independent experiments, in FIG. 5B, n=11–12, collected from 3 independent experiments). […] Indomethacin blocks both cyclooxygenase and lipoxygenase, the two primary enzymes in the arachidonic acid metabolic cascade. […] When 100 μM of these were tested, the potency was AA861>NDGA>ETYA>Indomethacin>CLA. […]"}, "[2]": {"experiment": "Body weights of mice on NDGA/CLA diets (Experiment 2, FIG. 2)", "type": "in vivo", "settings": "male ICR mice, 0.1% CLA and/or 0.1% NDGA", "experimental": "as §1"}, "[3]": {"settings": "4 weeks diet with 0.1% CLA and/or 0.1% NDGA, mean±S.E., N=5–6"}}}
{"substance": "Conjugated linoleic acid [CLA]", "values": [{"measurement": "body weights, weeks 0 through 3 (in words)", "setting": "[1]", "value": "no difference in body weights"}, {"measurement": "% Ash", "setting": "ICR mice; [3]", "value": "3.49 ± 0.07", "unit": "%"}, {"measurement": "ECW (empty carcass weight)", "setting": "ICR mice; [3]", "value": "32.0 ± 0.9", "unit": "g"}, {"measurement": "body composition versus control (in words)", "setting": "ICR mice; 4 weeks, 0.1% CLA and/or 0.1% NDGA", "value": "reduced fat (p<0.197) and increased water and protein"}, {"measurement": "glycerol released from the cell (in words)", "setting": "3T3-L1 adipocytes", "value": "increased the glycerol released"}, {"measurement": "body weights (in words)", "setting": "[2]", "value": "no difference in body weights"}]}
